Legend:
S. epidermidis = assay: Comparison of diol compounds, growth of beneficial bacteria; format: cell-based, Staphylococcus epidermidis; design: key to Effect on the growth of beneficial bacteria (S. epidermidis): ++: Growth promotion; +: No effect; −: Growth inhibition; − −: 50% or more growth inhibition
Source text: (§1) FIG. 4 illustrates the results of a comparative analysis of the effects of diol compounds, specifically 1,3-propanediol, 2-methyl-1,3-propanediol, 1,3-butanediol, 2,3-butanediol, 1,2-pentanediol, and 1,2-hexanediol on the growth of harmful bacteria (upper graph) and beneficial bacteria (lower graph). FIG. 4A: 1,3-propanediol, FIG. 4B: 2-methyl-1,3-propanediol; FIG. 4C: 1,3-butanediol; FIG. 4D: 2,3-butanediol; FIG. 4E: 1,2-pentanediol; FIG. 4F: 1,2-Hexanediol.
(§2) • 1) Staphylococcus epidermidis ATCC 12228 and Staphylococcus aureus ATCC 6538 strains were obtained from ThermoFisher Scientific and cultured in tryptic soy broth (culture conditions: 32° C. for 18 hours). After culturing, they were diluted with 0.85% NaCl to adjust the absorbance (600 nm) to 0.5-0.6. • 2) 1,3-propanediol was obtained from Sigma-Aldrich. • 3) 2-methyl-1,3-propanediol, 1,3-butanediol, 2,3-butanediol, 1,2-pentanediol, and 1,2-hexanediol were all obtained from Sigma-Aldrich. • 4) Fructan was obtained from Sigma-Aldrich. • 5) Yeast extract was obtained from Sigma-Aldrich.

S. aureus = assay: Comparison of diol compounds, growth of harmful bacteria; format: cell-based, Staphylococcus aureus
Source text: as §1, §2

| Structure (SMILES) | Effect on the growth of beneficial bacteria (S. epidermidis) (S. epidermidis; diol compound 0.1 wt %) | Effect on the growth of beneficial bacteria (S. epidermidis) (S. epidermidis; diol compound 1 wt %) | Effect on the growth of beneficial bacteria (S. epidermidis) (S. epidermidis; diol compound 5 wt %) | Effect on the growth of beneficial bacteria (S. epidermidis) (S. epidermidis; diol compound 10 wt %) | Effect on the growth of beneficial bacteria (S. epidermidis) (S. epidermidis; diol compound 20 wt %) | Effect on the growth of harmful bacteria (S. aureus) (S. aureus; diol compound 0.1 wt %) | Effect on the growth of harmful bacteria (S. aureus) (S. aureus; diol compound 1 wt %) | Effect on the growth of harmful bacteria (S. aureus) (S. aureus; diol compound 5 wt %) | Effect on the growth of harmful bacteria (S. aureus) (S. aureus; diol compound 10 wt %) | Effect on the growth of harmful bacteria (S. aureus) (S. aureus; diol compound 20 wt %) |
| --- | --- | --- | --- | --- | --- | --- | --- | --- | --- | --- |
| CC(O)CCO (stereo not drawn) [1,3-butanediol] | ++ | − | − | − − (50% or more growth inhibition) | − − (50% or more growth inhibition) | + | + | ++ | ++ | +++ (50% or more inhibition) |
| CC(O)C(C)O (stereo not drawn) [2,3-butanediol] | ++ | − | − − (50% or more growth inhibition) | − − (50% or more growth inhibition) | − − (50% or more growth inhibition) | + | + | ++ | +++ (50% or more inhibition) | +++ (50% or more inhibition) |
| CC(CO)CO [2-methyl-1,3-propanediol] | + | + | − | − − (50% or more growth inhibition) | − − (50% or more growth inhibition) | + | + | ++ | +++ (50% or more inhibition) | +++ (50% or more inhibition) |
